Data published in article PMC11364095 (Science Advances, 2024).

Tested on: E. coli ATCC 35218
Assay: Resistance development assay
Type: cell-based
Settings: after 16 passages, serial passaging in sub-MIC concentrations

| Molecule | fold increase of MIC against E. coli ATCC 35218 [fold] |
| --- | --- |
| O=C(O)c1cn(C2CC2)c2cc(N3CCNCC3)c(F)cc2c1=O [ciprofloxacin] | 256 |
| colistin | 128 |
